Converted amounts (≈) assume the structure as drawn. “And” between values parts separate entries of the source, which are not always exact repeats. Identical values can stand only once.
What was measured:
[1] = Solubility in biorelevant media; conditions: for Solubility FaSSGF (1 h) / Solubility FaSSIF-V2 (5–6 h) / Solubility FeSSIF-V2 (5–6 h) / Solubility PBS7.4 (5–6 h) / solubility at 1 h: 37 °C; for solubility at 1 h / solubility in all media tested: FaSSGF; for solubility at 1 h: fassgf or other biorelevant; for solubility at 1 h / solubility: thermodynamic from solid; for solubility in all media tested: FaSSIF-V2, FeSSIF-V2, PBS pH 7.4
Experimental: Solubility of each active pharmaceutical ingredient was evaluated at 37 °C in pH 7.4 phosphate buffered saline (prepared as described for the partitioning experiments), fasted (FaSSIF-V2) and fed (FeSSIF-V2) state simulated intestinal fluids and fasted state simulated gastric fluid (FaSSGF) as described by Jantratid et al.. […] Samples were vortexed and placed in a 37 °C incubator on an orbital mixer (IKA® VXR basic Vibrax® orbital mixer) set at 600 rpm. Sampling times were 1 h for FaSSGF or 5–6 h for FaSSIF-V2, FeSSIF-V2, and PBS. These times were used to reflect the maximal likely residence times within the stomach and small intestine, respectively. Sampling was carried out by centrifuging each sample at 10,000 rpm for 3 min, transferring 300 µL aliquots into fresh Eppendorf tubes and centrifuging these tubes again at 10,000 rpm for 3 min. Triplicate aliquots of the supernatant were then removed and diluted 1:2 in 50% aqueous methanol and then again in 50% aqueous acetonitrile to be within the analytical concentration range. Samples were analysed by LC–MS along with calibration standards (Additional file 1: Table S2).

physchem = conditions: for An (absorption number): Peff × tres/R, minimum 1; for Ssi (estimated solubility in the small intestine): based on measured FaSSIF solubility; for Permeability classification: based on ref 80 and control compounds; for Predicted human Peff: from Caco-2 Papp via calibration plot; for solubility: FaSSIF
From the text: Predicted Peff values were obtained from a calibration plot of literature Peff values vs measured Caco-2 Papp using either buffer or plasma as the transport medium (see Results section).

[2] = target: T1, Albumax medium (lipid rich bovine serum albumin) (Bos taurus, UniProt P02769); test: Binding in Albumax medium via ultracentrifugation; type: in vitro ADME; conditions: for fraction unbound at […], 500 ng/mL: bovine, pH 7.4
T1 construct: purchased Gibco, Thermo Fisher Scientific
T1 sequence (P02769 25-607): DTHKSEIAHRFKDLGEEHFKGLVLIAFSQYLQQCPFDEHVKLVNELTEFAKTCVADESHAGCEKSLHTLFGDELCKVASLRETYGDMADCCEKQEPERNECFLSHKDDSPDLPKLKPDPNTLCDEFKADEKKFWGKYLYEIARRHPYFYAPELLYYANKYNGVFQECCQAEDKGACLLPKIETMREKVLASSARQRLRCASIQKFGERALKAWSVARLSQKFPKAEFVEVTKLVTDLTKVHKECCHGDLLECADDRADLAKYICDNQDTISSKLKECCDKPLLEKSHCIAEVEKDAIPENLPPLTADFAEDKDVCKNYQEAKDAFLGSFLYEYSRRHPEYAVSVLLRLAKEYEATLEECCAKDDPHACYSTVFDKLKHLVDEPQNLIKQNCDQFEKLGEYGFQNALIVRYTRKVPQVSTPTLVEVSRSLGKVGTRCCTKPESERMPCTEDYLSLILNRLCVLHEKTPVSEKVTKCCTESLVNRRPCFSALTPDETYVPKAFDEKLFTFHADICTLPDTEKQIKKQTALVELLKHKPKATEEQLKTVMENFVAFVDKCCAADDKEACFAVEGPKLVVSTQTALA
Outline: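 Unbound fraction (fu) taken as protein-free supernate concentration over total concentration after ultracentrifuging compound-spiked Albumax at 37 °C (5% or 10% CO2, or air). Analysis used 1:1 mixing with the opposite blank matrix against a common pH 7.4 calibration; degradation judged by start versus end Ctotal.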

CYP1A2 = target: T2, CYP1A2 (Homo sapiens, UniProt P05177); test: in vitro; conditions: microsomes
T2 sequence (P05177 1-516): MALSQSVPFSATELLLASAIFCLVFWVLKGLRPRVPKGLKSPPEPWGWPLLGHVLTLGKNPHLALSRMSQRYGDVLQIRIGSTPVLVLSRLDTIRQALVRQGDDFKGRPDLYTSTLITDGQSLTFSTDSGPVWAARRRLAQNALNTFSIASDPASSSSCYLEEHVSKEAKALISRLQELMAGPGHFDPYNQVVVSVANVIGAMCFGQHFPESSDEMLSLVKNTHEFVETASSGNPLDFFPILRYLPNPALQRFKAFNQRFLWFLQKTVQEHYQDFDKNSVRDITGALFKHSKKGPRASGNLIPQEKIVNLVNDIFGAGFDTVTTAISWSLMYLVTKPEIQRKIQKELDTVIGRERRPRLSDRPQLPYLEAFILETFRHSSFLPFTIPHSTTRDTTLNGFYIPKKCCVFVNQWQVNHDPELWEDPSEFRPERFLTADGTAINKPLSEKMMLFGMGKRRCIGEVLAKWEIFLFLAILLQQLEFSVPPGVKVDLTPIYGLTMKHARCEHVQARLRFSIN
Outline: (§1)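 Activity of each isoform followed via a specific probe-substrate metabolite formed in human liver microsomes; reactions quenched with ice-cold acetonitrile and metabolite measured by LC–MS. Percent inhibition taken versus metabolite formation without inhibitor; Km from metabolite formation rate (pmol/min/mg protein) across substrate concentrations.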

CYP2C19 = CYP2C19 (Homo sapiens, UniProt P33261); test: in vitro; conditions: microsomes
Sequence of CYP2C19 (P33261 whole entry): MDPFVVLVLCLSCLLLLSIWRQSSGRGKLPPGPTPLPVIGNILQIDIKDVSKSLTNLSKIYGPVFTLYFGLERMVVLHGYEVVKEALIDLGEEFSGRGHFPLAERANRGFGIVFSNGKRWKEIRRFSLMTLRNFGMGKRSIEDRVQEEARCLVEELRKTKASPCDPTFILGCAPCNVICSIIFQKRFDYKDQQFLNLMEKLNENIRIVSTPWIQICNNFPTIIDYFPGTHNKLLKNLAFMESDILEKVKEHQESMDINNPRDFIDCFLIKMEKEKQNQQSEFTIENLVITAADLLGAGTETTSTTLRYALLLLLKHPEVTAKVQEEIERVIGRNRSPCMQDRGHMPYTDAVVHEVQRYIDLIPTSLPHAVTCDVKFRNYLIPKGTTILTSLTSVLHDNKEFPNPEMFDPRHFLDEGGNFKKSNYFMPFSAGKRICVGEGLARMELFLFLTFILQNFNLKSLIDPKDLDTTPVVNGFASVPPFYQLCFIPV
Outline: as §1

CYP2C9 = CYP2C9 (Homo sapiens, UniProt P11712); test: in vitro; conditions: microsomes
Sequence of CYP2C9 (P11712 whole entry): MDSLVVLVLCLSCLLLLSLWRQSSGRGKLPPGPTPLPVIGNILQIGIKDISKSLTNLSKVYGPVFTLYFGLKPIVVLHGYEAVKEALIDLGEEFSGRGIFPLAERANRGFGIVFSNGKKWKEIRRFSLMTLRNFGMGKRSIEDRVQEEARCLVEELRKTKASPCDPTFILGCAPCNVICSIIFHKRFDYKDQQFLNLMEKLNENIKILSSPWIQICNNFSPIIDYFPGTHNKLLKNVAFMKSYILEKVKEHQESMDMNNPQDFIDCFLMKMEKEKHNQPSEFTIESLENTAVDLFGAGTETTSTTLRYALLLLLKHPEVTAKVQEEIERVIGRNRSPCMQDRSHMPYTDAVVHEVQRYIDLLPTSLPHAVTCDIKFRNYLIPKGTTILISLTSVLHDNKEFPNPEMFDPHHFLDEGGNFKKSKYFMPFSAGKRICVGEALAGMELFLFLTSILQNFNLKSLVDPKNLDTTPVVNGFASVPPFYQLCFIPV
Outline: as §1

CYP2D6 = CYP2D6 (Homo sapiens, UniProt P10635); test: in vitro; conditions: microsomes
Sequence of CYP2D6 (P10635 whole entry): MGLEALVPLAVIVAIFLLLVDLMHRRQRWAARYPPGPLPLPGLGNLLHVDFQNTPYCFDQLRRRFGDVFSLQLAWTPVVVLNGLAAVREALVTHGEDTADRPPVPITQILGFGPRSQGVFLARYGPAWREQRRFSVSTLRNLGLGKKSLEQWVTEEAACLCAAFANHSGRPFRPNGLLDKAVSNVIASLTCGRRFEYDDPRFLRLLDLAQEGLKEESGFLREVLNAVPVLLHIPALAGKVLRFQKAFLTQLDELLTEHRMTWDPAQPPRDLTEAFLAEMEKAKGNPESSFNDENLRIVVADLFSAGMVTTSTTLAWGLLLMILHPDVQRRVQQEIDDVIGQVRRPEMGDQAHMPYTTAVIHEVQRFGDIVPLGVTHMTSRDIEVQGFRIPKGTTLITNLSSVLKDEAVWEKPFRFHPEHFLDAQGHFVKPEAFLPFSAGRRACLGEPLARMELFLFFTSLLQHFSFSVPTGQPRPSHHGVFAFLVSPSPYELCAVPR
Outline: as §1

CYP3A4 = CYP3A4 (Homo sapiens, UniProt P08684); test: in vitro; conditions: microsomes
Sequence of CYP3A4 (P08684 whole entry): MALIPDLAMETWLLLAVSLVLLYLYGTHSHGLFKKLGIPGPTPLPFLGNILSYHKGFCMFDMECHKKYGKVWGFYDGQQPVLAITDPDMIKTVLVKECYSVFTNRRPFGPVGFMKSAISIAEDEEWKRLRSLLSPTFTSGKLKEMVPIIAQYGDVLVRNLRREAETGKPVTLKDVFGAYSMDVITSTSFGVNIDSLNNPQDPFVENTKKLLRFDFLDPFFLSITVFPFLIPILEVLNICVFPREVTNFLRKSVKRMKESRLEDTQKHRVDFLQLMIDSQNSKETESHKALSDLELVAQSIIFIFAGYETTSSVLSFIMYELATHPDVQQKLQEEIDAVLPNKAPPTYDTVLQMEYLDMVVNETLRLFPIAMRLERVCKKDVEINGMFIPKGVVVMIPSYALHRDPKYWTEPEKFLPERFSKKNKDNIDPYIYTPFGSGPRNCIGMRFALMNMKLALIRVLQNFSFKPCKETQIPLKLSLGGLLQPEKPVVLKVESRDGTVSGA
Outline: as §1

[3] = In vitro metabolism (metabolic stability) in human liver microsomes; conditions: human, pH 7.4, HLM CLint
Outline: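 Intrinsic clearance (µL/min/mg protein) came from the first-order substrate-depletion rate in human liver microsomes, using only the initial log-linear phase where kinetics deviated. Samples were quenched at 2, 5, 15, 30 and 60 min and quantified by LC–MS. Unbound CLint was obtained by dividing by microsomal fu.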

[4] = phosphate buffered saline pH 7.4, 37 °C, pH 7.4, aqueous buffer

Row | Compound | Solubility FaSSGF (1 h) [1] | Solubility FaSSIF-V2 (5–6 h) [1] | Solubility FeSSIF-V2 (5–6 h) [1] | Solubility PBS7.4 (5–6 h) [1] | SLAD (physchem) [mg] | An (absorption number) (physchem) | Ssi (estimated solubility in the small intestine) (physchem) [µg/mL] | Permeability classification (physchem) | Predicted human Peff (physchem) | Fraction unbound, Albumax [2] | CYP1A2 % inhibition at max conc (CYP1A2) | IC50 (CYP1A2) [µM] | CYP2C19 % inhibition at max conc (CYP2C19) | IC50 (CYP2C19) [µM] | CYP2C9 % inhibition at max conc (CYP2C9) | IC50 (CYP2C9) [µM] | IC50 (CYP2D6) [µM] | CYP3A4 (midaz) % inhibition at max conc (CYP3A4) | CYP3A4 (test) % inhibition at max conc (CYP3A4) | IC50 (CYP3A4) [µM] | further results
1 | CCN(CC)CCCNc1ccnc2cc(Cl)ccc12.Cl.Cl [AQ-13] | > 2000 µg/mL and > 6850 µM | > 2000 µg/mL and > 6850 µM | > 2000 µg/mL and > 6850 µM | 1480 µg/mL and 5070 µM | > 2250 | 2.2 | > 2000 | High (> 85% absorption (high)) | 1.9 10^−4 cm/s | 0.85 ± 0.028 | nmi | > 20 | nmi | > 20 | nmi | > 20 | 13 | nmi | nmi | > 20 | Ki (CYP2D6): 8.3 µM
2 | C[C@H]1[C@H](N2CCS(=O)(=O)CC2)O[C@@H]2O[C@@]3(C)CC[C@H]4[C@H](C)CC[C@@H]1[C@@]24OO3 [Artemisone] | – | – | – | – | – | 6.0 | – | High (> 85% absorption (high)) | 5.0 10^−4 cm/s | – | – | – | – | – | – | – | – | – | – | – | solubility at 1 h [1]: 89.1 µg/mL and 222 µM; solubility ([1]; FaSSIF-V2, 37 °C, fassif): 115 µg/mL and 286 µM; solubility ([1]; FeSSIF-V2, 37 °C, fessif): 278 µg/mL and 692 µM; solubility [1, 4]: 86.1 µg/mL and 214 µM; solubility (physchem): 115 µg/mL (≈ 286 µM); SLAD (physchem; Ssi × V (500 mL) × Mp): 345 mg; fraction unbound at […], 500 ng/mL ([2]; isolated protein): 0.46 ± 0.013; microsomal CLint at 1 µM ([3]; liver microsomes, human liver microsomes, average of n = 2 replicates, < 7 means < 15% loss over 60 min): 97.7 µL/min/mg
3 | CN(C)C[c-]1cccc1CNc1ccnc2cc(Cl)ccc12.[Fe+2].c1cc[cH-]c1 (centres unmarked) [Ferroquine] | > 2000 µg/mL and > 4600 µM | 320 µg/mL and 738 µM | > 2000 µg/mL and > 4600 µM | 4.9 µg/mL and 11 µM | – | 2.7 | 320 | High (> 85% absorption (high)) | 2.2 10^−4 cm/s | 0.52 ± 0.031 | nmi | > 20 | nmi | > 20 | nmi | > 20 | 0.83 | – | 42% | – | SLAD (physchem; Ssi × V (500 mL) × Mp): 426 mg; Ki (CYP2D6): 0.52 µM; Ki (CYP3A4): 5.2 µM
4 | CC(C)(C)NCc1cc(C(C)(C)C)cc(-c2cnc(C(F)(F)F)c(F)c2)c1O [JPC3210] | 213 µg/mL and 535 µM | 7.60 µg/mL and 19.1 µM | 131 µg/mL and 329 µM | 0.800 µg/mL and 2.01 µM | 51 | 13 | 7.60 | High (> 85% absorption (high)) | 11 10^−4 cm/s | 0.21 ± 0.012 | nmi | > 20 | nmi | > 20 | nmi | > 20 | 0.7 | nmi | nmi | > 20 | Ki (CYP2D6): 0.43 µM
5 | O=C(NCCN1CCCC1)c1cc(-c2ccc(CN3CCOCC3)cc2)nc2ccc(F)cc12 [M5717] | – | – | – | – | > 6050 | 4.0 | > 3000 | High (> 85% absorption (high)) | 3.4 10^−4 cm/s | 0.55 ± 0.041 | nmi | > 20 | nmi | > 20 | nmi | > 20 | > 20 | nmi | nmi | > 20 | solubility in all media tested [1]: > 2000 µg/mL; CYP2D6 % inhibition at max conc (CYP2D6): nmi
6 | OC(c1cc(C(F)(F)F)nc2c(C(F)(F)F)cccc12)C1CCCCN1 (centres unmarked) [Mefloquine] | – | – | – | – | – | – | – | High (> 85% absorption (high)) | – | – | nmi | – | – | – | nmi | – | – | nmi | – | – | solubility at 1 h [1]: 740 µg/mL and 1960 µM; solubility ([1]; FaSSIF-V2, 37 °C, fassif): 584 µg/mL and 1540 µM; solubility ([1]; FeSSIF-V2, 37 °C, fessif): > 2000 µg/mL and > 5200 µM; solubility [1, 4]: 290 µg/mL and 767 µM; solubility (physchem): 584 µg/mL (≈ 1540 µM); fraction unbound at […], 500 ng/mL ([2]; Albumax medium): 0.27 ± 0.019; microsomal CLint at 1 µM ([3]; microsomes): < 7 µL/min/mg; inhibition at 20 µM (CYP3A4; human, pH 7.4, CYP3A4 (test) % inhibition at max conc): 29%
7 | CC(C)(C)NCc1cc(Nc2ccnc3cc(Cl)ccc23)c2c(c1O)CCCC2 [Naphthoquine] | > 2000 µg/mL and > 4880 µM | 410 µg/mL and 1000 µM | 941 µg/mL and 2300 µM | 28.5 µg/mL and 69.5 µM | 2250 | 11 | 410 | High (> 85% absorption (high)) | 9.2 10^−4 cm/s | 0.27 ± 0.035 | 33% | > 20 | nmi | > 20 | nmi | > 20 | 1.1 | 41% | 38% | > 20 | Ki (CYP2D6): 0.68 µM
8 | CCc1nc(N)nc(N)c1OCCCOc1ccccc1CCC(=O)O.Cl [P218] | > 2000 µg/mL and > 5550 µM | 408 µg/mL and 1130 µM | 525 µg/mL and 1460 µM | 1070 µg/mL and 2960 µM | 204 | 1.0 | 408 | Low (< 50% absorption (low)) | 0.24 10^−4 cm/s | 0.41 ± 0.022 | nmi | > 20 | nmi | > 20 | nmi | > 20 | > 20 | nmi | nmi | > 20 | solubility in all media tested [1]: 400 to 500 µg/mL; CYP2D6 % inhibition at max conc (CYP2D6): nmi

From PMC6941357, “An in vitro toolbox to accelerate anti-malarial drug discovery and development” (Malaria Journal, 2020)
